Laboratory results published in patent publication US20020119993A1, “Potentiator for neurotrophin effect” (SANKO COMPANY, LIMITED, priority 1999, published 2002).

Columns and labels:
[1] = tested on: sensory neurons in the dorsal root ganglion of the rat spinal cord; test: Survival of sensory neurons of the dorsal root ganglion of the rat spinal cord; type: cell-based; settings: for Effect on NGF or NT-3 prolonged survival of sensory neurons in the dorsal root ganglion (in words): with NGF or NT-3
Experimental: Effects on Survival of Ganglion Sensory Neurons in Dorsal Spinal Root Ganglion of the Rat Spinal Cord
The dorsal root ganglion of the spinal cord was isolated from fetuses of the SD rat (Nippon SLC) on 17 days definite pregnancy under a stereoscopic microscope. The ganglion was then treated with 1 mg/ml of collagenase, 2 mg/ml of trypsin and 2 mg/ml of DNase I, followed by dispersion in an MEM medium containing 10% bovine fetal serum. Immediately after the sensory neuron suspension was charged in a 12-well plate (Becton Dickinson Labware) which was coated in advance with laminin and poly-D-lysine, a neurotrophin (NGF or NT-3) and 1-amino-3,8-dichloro-6(5H)-phenanthridinone (Compound No. 166) or 6(5H)-phenanthridinone (Compound A) were added. When half of the medium was exchanged on the next day, cytosine arabinoside was added to the culture medium at a final concentration of 10 μM, in order to cause cell death other than to neurons. A neurotrophin and the test compound were added to the medium at their original concentrations. After culturing for a further two days, the neurons were photographed under a microscope and the number of viable neurons was counted.

[2] = tested on: PC12 cells; test: Induction of differentiation (neurite outgrowth) in PC12 cells with neurotrophin; type: cell-based, rat; settings: for Ratio of PC12 cells having an outgrowth (%): 72 hours; for Differentiation-induction of PC12 cells by neurotrophin alone (in words): neurotrophin used alone
Excerpt: Induction of Differentiation in […] strain (PC12 cell) derived from Rat Adrenal Medulla
PC12 cells were suspended in a DEM medium containing 10% equine serum and 5% bovine serum and the resulting suspension was charged in a collagen-coated 24-well plate. Twenty-four hours later, the medium was exchanged. A neurotrophin [human recombinant NGF or NT-3 (Austral Biologicals)] and 1-amino-3,8-dichloro-6(5H)-phenanthridinone (Compound No. 166) synthesized in accordance with the process described in Journal of Heterocyclic Chemistry, Z, 597 (1970), were added and cultured for 72 hours. After the medium was discarded, the cells were fixed with 2% glutaraldehyde and were observed under a microscope. The ratio of the cells having a longer outgrowth than the cell body was determined.

[3] = tested on: neurotrophin receptor Trk; test: Neurotrophin receptor Trk activation (phosphotyrosine) in hippocampal and strial tissue slices of matured rat; type: cell-based; settings: for Amount of neurotrophin receptor Trk activated in matured rat cerebral tissues: relative to the amount (100) activated by NGF in the strial tissue
Experimental: Enhancing Action of Neurotrophin Response in Hippocampal and Strial Tissue Slices of Matured Rat
Male SD rats (Nippon SLC) were decapitated under anesthesia and the hippocampus and the corpus striatum were isolated. The tissue was cut into 0.2×0.2 mm slices with a “McIlwain Tissue Chopper” (Mickle Laboratory Engineering Company), and were suspended in a DMEM medium. A neurotrophin (NGF or NT-3) and 1-amino-3,8-dichloro-6(5H)-phenanthridinone were added to the suspension and the mixture was kept at 37° C. for 20 minutes. After washing the tissue with ice-cooled tris buffer physiological saline (TBS), the mixture was stirred vigorously and dissolved in TBS containing 1% Triton-X100, 10 μg/ml of leupeptin, 10 µg/ml of aprotinin, 1 mM of phenylmethylsulfonyl fluoride and 1 mM of sodium vanadate. After centrifugation at 14000 g for 15 minutes, the amount of protein in the supernatant was determined with Protein Assay Kit (Bio-Rad Laboratories, Ltd.). Anti-Trk antibody C-14 (Santa Cruz Biotechnology Inc) which specifically binds to Trk, a neurotrophin receptor, was added to the extract which was adjusted to contain an equal amount of protein and mixed at 4° C. for 16 hours. Thus the Trk receptor in the tissue extract formed an immunocomplex with the antibody. The immunocomplex was precipitated with protein A Sepharose beads (Amersham Pharmacia Biotech). The Trk protein collected was separated from other proteins by sodium dodecyl sulfate-polyacrylamide gel electrophoresis and then transferred to a nitrocellulose membrane by Western blot assay. The membrane was reacted with Antibody 4G10 (Upstate Biotechnology Inc) which recognizes phosphotyrosine and the amount of phosphotyrosine of the Trk protein fixed on the membrane was visualized on a film by an enhanced chemiluminescence kit (Amersham Pharmacia Biotech). The film was photographed by a digital camera and the density of the band was determined by digital image analyzing software (Eastman Kodak Company).

[4] = Table 4, NT-3 100 ng/ml + compound 1 μM
[5] = Table 4, neurotrophin-free, compound 1 μM

O=c1[nH]c2ccccc2c2ccccc12 [Compound A, 6(5H)-phenanthridinone, reference compound]
Number of viable sensory neurons in the dorsal root ganglion of the rat spinal cord (per mm^2) [1, 4]: 37 ± 3.6 per mm^2
Number of viable sensory neurons in the dorsal root ganglion of the rat spinal cord (per mm^2) [1, 5]: 6 ± 0.8 per mm^2
Effect on NGF or NT-3 prolonged survival of sensory neurons in the dorsal root ganglion (in words) [1]: had no effects

Nc1cc(Cl)cc2[nH]c(=O)c3cc(Cl)ccc3c12 [Compound No. 166, 1-amino-3,8-dichloro-6(5H)-phenanthridinone]
Ratio of PC12 cells having an outgrowth (%) ([2]; NGF 5 ng/ml + compound 3 μM): 12 ± 1.3%
Ratio of PC12 cells having an outgrowth (%) ([2]; NGF 5 ng/ml + compound 30 μM): 29 ± 2.6%
Ratio of PC12 cells having an outgrowth (%) ([2]; NGF 20 ng/ml + compound 3 μM): 51 ± 6.5%
Ratio of PC12 cells having an outgrowth (%) ([2]; NGF 20 ng/ml + compound 30 μM): 72 ± 2.0%
Ratio of PC12 cells having an outgrowth (%) ([2]; NGF 50 ng/ml + compound 3 μM): 79 ± 3.0%
Ratio of PC12 cells having an outgrowth (%) ([2]; NGF 50 ng/ml + compound 30 μM): 88 ± 0.7%
Ratio of PC12 cells having an outgrowth (%) ([2]; NT-3 100 ng/ml + compound 3 μM): 62 ± 0.2%
Ratio of PC12 cells having an outgrowth (%) ([2]; NT-3 100 ng/ml + compound 30 μM): 73 ± 3.6%
Effect on NGF-induced differentiation and neurite outgrowth in PC12 cells (in words) ([2]; applied with NGF): potentiated the NGF-induced differentiation and neurite outgrowth in PC12 cells
Effect on differentiation-induction of PC12 cells (in words) ([2]; combined application with NT-3): markedly potentiated the differentiation-induction of PC12 cells
Amount of neurotrophin receptor Trk activated in matured rat cerebral tissues ([3]; Corpus striatum, NT-3 100 ng/ml + compound 30 μM): 68
Amount of neurotrophin receptor Trk activated in matured rat cerebral tissues ([3]; Hippocampus, NT-3 100 ng/ml + compound 30 μM): 58
Neurotrophin enhancing action in the adult central nervous system (in words) ([3]; matured rat cerebral tissue slices, Table 5): has a neurotrophin enhancing action in the adult central nervous system
Number of viable sensory neurons in the dorsal root ganglion of the rat spinal cord (per mm^2) ([1]; Table 3, NGF 1 ng/ml + compound 3 μM): 71 ± 1.7 per mm^2
Number of viable sensory neurons in the dorsal root ganglion of the rat spinal cord (per mm^2) ([1]; Table 3, NT-3 100 ng/ml + compound 3 μM): 168 ± 21.1 per mm^2
Number of viable sensory neurons in the dorsal root ganglion of the rat spinal cord (per mm^2) ([1]; Table 3, neurotrophin-free, compound 3 μM): 24 ± 1.6 per mm^2
Number of viable sensory neurons in the dorsal root ganglion of the rat spinal cord (per mm^2) [1, 4]: 133 ± 13.1 per mm^2
Number of viable sensory neurons in the dorsal root ganglion of the rat spinal cord (per mm^2) [1, 5]: 11 ± 4.0 per mm^2
Effect on NGF or NT-3 prolonged survival of sensory neurons in the dorsal root ganglion (in words) [1]: markedly potentiated the effects of NGF or NT-3

NGF: human recombinant NGF (nerve growth factor), a neurotrophin (Austral Biologicals)
Ratio of PC12 cells having an outgrowth (%) ([2]; neurotrophin alone 5 ng/ml, compound-free): 8 ± 0.9%
Ratio of PC12 cells having an outgrowth (%) ([2]; neurotrophin alone 20 ng/ml, compound-free): 27 ± 2.8%
Ratio of PC12 cells having an outgrowth (%) ([2]; neurotrophin alone 50 ng/ml, compound-free): 57 ± 3.6%
Differentiation-induction of PC12 cells by neurotrophin alone (in words) [2]: induced differentiation of PC12 cells
Number of viable sensory neurons in the dorsal root ganglion of the rat spinal cord (per mm^2) ([1]; Table 3, neurotrophin alone 1 ng/ml, compound-free): 44 ± 5.5 per mm^2

NT-3: neurotrophin-3, a neurotrophin (Austral Biologicals)
Ratio of PC12 cells having an outgrowth (%) ([2]; neurotrophin alone 100 ng/ml, compound-free): 2 ± 0.6%
Differentiation-induction of PC12 cells by neurotrophin alone (in words) [2]: did not cause any sufficient differentiation-induction by itself
Amount of neurotrophin receptor Trk activated in matured rat cerebral tissues ([3]; Corpus striatum, NT-3 100 ng/ml alone): 12
Amount of neurotrophin receptor Trk activated in matured rat cerebral tissues ([3]; Hippocampus, NT-3 100 ng/ml alone): 27
Number of viable sensory neurons in the dorsal root ganglion of the rat spinal cord (per mm^2) ([1]; Table 3, neurotrophin alone 100 ng/ml, compound-free): 19 ± 5.0 per mm^2
Number of viable sensory neurons in the dorsal root ganglion of the rat spinal cord (per mm^2) ([1]; Table 4, neurotrophin alone 100 ng/ml, compound-free): 33 ± 4.9 per mm^2
